Results: patent EP4763845A1, “CYANO AROMATIC RING DERIVATIVE AND PHARMACEUTICAL USE THEREOF” (Haisco Pharmaceutical Group Co., Ltd., priority 2023, dated 2025)

biological target: T1, AR protein (Homo sapiens, UniProt P10275); test: Detection of AR degradation in VCaP cells (automated western blot); format: cell-based; conditions: AR protein in VCaP cells, concentration of 30 nM, 24 hours
T1 construct: VCap is a human prostate cancer cell line purchased from ATCC; host or cells: VCaP human prostate cancer cells
T1 sequence (P10275 1-920): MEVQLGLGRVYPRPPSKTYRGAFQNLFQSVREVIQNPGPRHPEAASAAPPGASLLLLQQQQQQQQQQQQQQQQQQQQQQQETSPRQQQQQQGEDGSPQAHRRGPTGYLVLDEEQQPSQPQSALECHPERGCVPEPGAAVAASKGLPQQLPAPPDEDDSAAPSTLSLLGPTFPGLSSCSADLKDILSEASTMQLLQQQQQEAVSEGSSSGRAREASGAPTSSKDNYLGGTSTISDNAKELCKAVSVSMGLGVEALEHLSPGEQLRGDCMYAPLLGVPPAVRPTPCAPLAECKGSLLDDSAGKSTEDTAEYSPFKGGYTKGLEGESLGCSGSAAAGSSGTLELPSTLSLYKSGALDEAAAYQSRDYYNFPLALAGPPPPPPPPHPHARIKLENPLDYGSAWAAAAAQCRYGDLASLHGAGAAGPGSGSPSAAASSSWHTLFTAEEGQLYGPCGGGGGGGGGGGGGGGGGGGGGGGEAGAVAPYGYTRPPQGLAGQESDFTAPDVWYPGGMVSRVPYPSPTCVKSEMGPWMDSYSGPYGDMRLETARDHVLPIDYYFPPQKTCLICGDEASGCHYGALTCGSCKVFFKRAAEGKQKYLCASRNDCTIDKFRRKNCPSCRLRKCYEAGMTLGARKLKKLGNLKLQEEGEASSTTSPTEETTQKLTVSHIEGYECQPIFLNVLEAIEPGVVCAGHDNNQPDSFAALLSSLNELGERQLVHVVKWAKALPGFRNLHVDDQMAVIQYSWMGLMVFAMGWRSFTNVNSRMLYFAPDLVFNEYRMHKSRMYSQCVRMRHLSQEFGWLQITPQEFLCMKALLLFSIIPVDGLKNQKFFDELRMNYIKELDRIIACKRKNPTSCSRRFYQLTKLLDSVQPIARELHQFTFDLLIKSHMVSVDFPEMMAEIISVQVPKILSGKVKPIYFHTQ
Protocol: VCap is a human prostate cancer cell line purchased from ATCC and cultured under the following conditions: DMEM + 10% FBS + 1% penicillin-streptomycin solution. The cells were cultured in a 37°C, 5% CO2 incubator. The cells were seeded in a 6-well plate, with 5 × 10^5 cells/well. After seeding, compounds at various concentrations were added, and the plate was incubated for 24 hours in the 37°C, 5% CO2 incubator. Following incubation, the cells were harvested and RIPA lysis buffer (beyotime, Cat. P0013B) was added. The cells were lysed on ice for 15 minutes and centrifuged at 12,000 rpm at 4°C for 10 minutes. The supernatant protein samples were collected and the protein was quantified using the BCA kit (Beyotime, Cat. P0009). Then the protein was diluted to 0.25 mg/mL. The expressions of AR (CST, Cat.5153S) and the internal reference β-actin (CST, Cat. 3700S) were detected using a fully automated western blot quantitative analyser (Proteinsimple). Using the "Compass for SW" software, the relative peak area of AR was calculated when the internal reference area was 10,000. The proportion of AR relative to the solvent control group at various drug concentrations was calculated according to Equation (1), where ARtreat represents the relative peak area of the compound-treated group, and ARsolvent represents the relative peak area of the solvent control group. The processed data obtained from Equation (1) were analysed using GraphPad Prism 8.3.0 software, and the DC50 value was calculated using a four-parameter nonlinear regression model. The degradation rate at a specified concentration was determined as 100-AR%. AR% = ARtreat/ ARsolvent × 100% [formula]

Q: `CC#CCOc1cc(O[C@H]2C(C)(C)[C@H](NC(=O)c3ccc(N4CCC(CN5CCN6c7cc(F)c(C(=O)N[C@H]8CCC(=O)NC8=O)cc7CC[C@@H]6C5)CC4)cc3)C2(C)C)ccc1C#N` [Trifluoroacetate of compound 99] was tested. Which Degradation rate % did it give?
A: >70%

Q: Which Degradation rate % does the source give for `CC1(C)[C@H](NC(=O)c2ccc(N3CCC(CN4CCN5c6cc(F)c(C(=O)N[C@H]7CCC(=O)NC7=O)cc6CC[C@@H]5C4)CC3)cc2)C(C)(C)[C@H]1Oc1ccc(C#N)c(C2CC2)c1` [Compound 119] here?
A: >70%

Q: `COc1cc(O[C@H]2C(C)(C)[C@H](NC(=O)c3ccc(N4CCC(CN5CCN6c7ncc(C8CCC(=O)NC8=O)cc7CC[C@@H]6C5)CC4)cc3)C2(C)C)ccc1C#N` (some centres unmarked) [Compound 93] was tested. Which Degradation rate % did it give?
A: >70%

Q: How did the Degradation rate % turn out when `CC1(C)[C@H](NC(=O)c2ccc(N3CCC(CN4CCN5c6cc(F)c(C7CCC(=O)NC7=O)cc6CC[C@@H]5C4)CC3)cc2)C(C)(C)[C@H]1Oc1ccc(C#N)c(C2CC2)c1` (some centres unmarked) [Compound 117] was run?
A: >70%

Q: With `COc1cc(O[C@H]2C(C)(C)[C@H](NC(=O)c3ccc(N4CCC5(CC4)CC(N4CCN6c7cc(F)c(C8CCC(=O)NC8=O)cc7CC[C@H]6C4)C5)cc3)C2(C)C)ccc1C#N` (some centres unmarked) [Trifluoroacetate of compound 121] as the compound, how does the Degradation rate % read?
A: >70%

same assay, conditions: degradation of AR protein in VCaP cells, 24 hours incubation; read-out: DC50

Q: For `CC1(C)[C@H](NC(=O)c2ccc(N3CCC(CN4CCN5c6cc(F)c(N7CCC(=O)NC7=O)cc6CC[C@@H]5C4)CC3)cc2)C(C)(C)[C@H]1Oc1ccc(C#N)c(Cl)c1` [Compound 50], which DC50 is on record?
A: < 100 nM

Q: For `Cc1cc(O[C@H]2C(C)(C)[C@H](NC(=O)c3ccc(N4CCC(CN5CCN6c7cc(F)c(N8CCC(=O)NC8=O)cc7CC[C@H]6C5)CC4)cc3)C2(C)C)cc(C)c1C#N` [Compound 80], which DC50 is on record?
A: < 100 nM

Q: For `COc1cc(O[C@H]2C(C)(C)[C@H](NC(=O)c3ccc(N4CCC5(CC4)CC(CN4CCN6c7cc(F)c(C8CCC(=O)NC8=O)cc7CC[C@@H]6C4)C5)cc3)C2(C)C)ccc1C#N` (some centres unmarked) [Trifluoroacetate of compound 9], which DC50 is on record?
A: < 100 nM

Q: With `CC1(C)[C@H](NC(=O)c2ccc(N3CCC4(CC3)CC(CN3CCN5c6cc(F)c(C7CCC(=O)NC7=O)cc6CC[C@@H]5C3)C4)cc2)C(C)(C)[C@H]1Oc1ccc(C#N)c2ncccc12` (some centres unmarked) [Compound 72] as the compound, how does the DC50 read?
A: < 100 nM

Q: How did the DC50 turn out when `COc1cc(O[C@H]2C(C)(C)[C@H](NC(=O)c3ccc(N4CCC(CN5CCN6c7cc(F)c(N8CCC(=O)NC8=O)cc7CC[C@H]6C5)CC4)nn3)C2(C)C)ccc1C#N` [Trifluoroacetate of compound 63] was run?
A: < 100 nM

Q: For `CC1(C)[C@H](NC(=O)c2ccc(N3CCC4(CC3)CC(CN3CCN5c6cc(F)c(C7CCC(=O)NC7=O)cc6CC[C@H]5C3)C4)cc2)C(C)(C)[C@H]1Oc1ccc(C#N)c(Cl)c1` (some centres unmarked) [Compound 55], which DC50 is on record?
A: < 100 nM

Q: How did the DC50 turn out when `CC1(C)[C@H](NC(=O)c2ccc(N3CCC(CN4CCN5c6cc(F)c(C7CCC(=O)NC7=O)cc6CC[C@@H]5C4)CC3)cc2)C(C)(C)[C@H]1Oc1ccc(C#N)c(Cl)c1` (some centres unmarked) [Compound 48] was run?
A: < 100 nM

Q: `[2H]C([2H])([2H])Oc1cc(O[C@H]2C(C)(C)[C@H](NC(=O)c3ccc(N4CCC5(CC4)CC(CN4CCN6c7cc(F)c(C8CCC(=O)NC8=O)cc7CC[C@@H]6C4)C5)cc3)C2(C)C)ccc1C#N` (some centres unmarked) [Compound 42] was tested. Which DC50 did it give?
A: < 100 nM

Q: For `COc1cc(O[C@H]2C(C)(C)[C@H](NC(=O)c3ccc(N4CCC5(CC4)CC(N4CCN6c7cc(F)c(C(=O)N[C@H]8CCC(=O)NC8=O)cc7CC[C@H]6C4)C5)cc3)C2(C)C)ccc1C#N` [Trifluoroacetate of compound 18], which DC50 is on record?
A: < 100 nM

Q: `COc1cc(O[C@H]2C(C)(C)[C@H](NC(=O)c3ccc(N4CCC5(CC4)CC(CN4CCN6c7cc(F)c(C(=O)N[C@H]8CCC(=O)NC8=O)cc7CC[C@@H]6C4)C5)cc3)C2(C)C)ccc1C#N` [Trifluoroacetate of compound 5] was tested. Which DC50 did it give?
A: < 100 nM

Q: How did the DC50 turn out when `Cc1cc(O[C@H]2C(C)(C)[C@H](NC(=O)c3ccc(N4CCC(CN5CCN6c7cc(F)c(N8CCC(=O)NC8=O)cc7CC[C@@H]6C5)CC4)cc3)C2(C)C)cc(C)c1C#N` [Compound 82] was run?
A: < 100 nM

Q: Which DC50 does the source give for `COc1cc(O[C@H]2C(C)(C)[C@H](NC(=O)c3ccc(N4CCC(CN5CCN6c7ccc(N8CCC(=O)NC8=O)cc7CCC6C5)CC4)cc3)C2(C)C)ccc1C#N` (some centres unmarked) [Compound 15] here?
A: < 100 nM

Q: `COc1cc(O[C@H]2C(C)(C)[C@H](NC(=O)c3ccc(N4CCC(CN5CCN6c7cc(F)c(N8CCC(=O)NC8=O)cc7CC[C@@H]6C5)CC4)nn3)C2(C)C)ccc1C#N` [Trifluoroacetate of compound 62] was tested. Which DC50 did it give?
A: < 100 nM

Q: With `COc1cc(O[C@H]2C(C)(C)[C@H](NC(=O)c3ccc(N4CCC5(CC4)CC(CN4CCN6c7cc(F)c(C8CCC(=O)NC8=O)cc7CC[C@H]6C4)C5)cc3)C2(C)C)ccc1C#N` (some centres unmarked) [Trifluoroacetate of compound 10] as the compound, how does the DC50 read?
A: < 100 nM

Q: `COc1cc(O[C@H]2C(C)(C)[C@H](NC(=O)c3ccc(N4CCC(CN5CCN6c7ncc(C8CCC(=O)NC8=O)cc7CC[C@H]6C5)CC4)cc3)C2(C)C)ccc1C#N` (some centres unmarked) [Compound 83] was tested. Which DC50 did it give?
A: < 100 nM

Q: `COc1cc(O[C@H]2C(C)(C)[C@H](NC(=O)c3ccc(N4CCC(N5CCN6c7cc(F)c(C8CCC(=O)NC8=O)cc7CC[C@H]6C5)CC4)cc3)C2(C)C)ccc1C#N` (some centres unmarked) [Trifluoroacetate of compound 21] was tested. Which DC50 did it give?
A: < 100 nM

Q: Which DC50 does the source give for `[2H]C([2H])([2H])Oc1cc(O[C@H]2C(C)(C)[C@H](NC(=O)c3ccc(N4CCC5(CC4)CC(CN4CCN6c7cc(F)c(C8CCC(=O)NC8=O)cc7CC[C@H]6C4)C5)cc3)C2(C)C)ccc1C#N` (some centres unmarked) [Compound 43] here?
A: < 100 nM

Q: With `COc1cc(O[C@H]2C(C)(C)[C@H](NC(=O)c3ccc(N4CCC(CN5CCN6c7cc(F)c(C(=O)N[C@@H]8CCC(=O)NC8=O)cc7CC[C@H]6C5)CC4)cc3)C2(C)C)ccc1C#N` [Compound 14] as the compound, how does the DC50 read?
A: < 100 nM

Q: Which DC50 does the source give for `CC1(C)[C@H](NC(=O)c2ccc(N3CCC4(CC3)CC(CN3CCN5c6cc(F)c(C(=O)N[C@H]7CCC(=O)NC7=O)cc6CC[C@@H]5C3)C4)cc2)C(C)(C)[C@H]1Oc1ccc(C#N)c(Cl)c1` [Compound 58] here?
A: < 100 nM

Q: With `COc1cc(O[C@H]2C(C)(C)[C@H](NC(=O)c3ccc(N4CCC(N5CCN6c7cc(F)c(C8CCC(=O)NC8=O)cc7CC[C@@H]6C5)CC4)cc3)C2(C)C)ccc1C#N` (some centres unmarked) [Trifluoroacetate of compound 20] as the compound, how does the DC50 read?
A: < 100 nM

Q: With `CC1(C)[C@H](NC(=O)c2ccc(N3CCC4(CC3)CC(CN3CCN5c6cc(F)c(C7CCC(=O)NC7=O)cc6CC[C@@H]5C3)C4)cc2)C(C)(C)[C@H]1Oc1ccc(C#N)c(Cl)c1` (some centres unmarked) [Compound 54] as the compound, how does the DC50 read?
A: < 100 nM

Q: With `COc1cc(O[C@H]2C(C)(C)[C@H](NC(=O)c3ccc(N4CCC(N5CCN6c7cc(F)c(C(=O)N[C@H]8CCC(=O)NC8=O)cc7CC[C@H]6C5)CC4)cc3)C2(C)C)ccc1C#N` [Trifluoroacetate of compound 24] as the compound, how does the DC50 read?
A: < 100 nM

Q: How did the DC50 turn out when `CC1(C)[C@H](NC(=O)c2ccc(N3CCC(CN4CCN5c6cc(F)c(N7CCC(=O)NC7=O)cc6CC[C@H]5C4)CC3)cc2)C(C)(C)[C@H]1Oc1ccc(C#N)c(Cl)c1` [Compound 51] was run?
A: < 100 nM

Q: For `[2H]C([2H])([2H])Oc1cc(O[C@H]2C(C)(C)[C@H](NC(=O)c3ccc(N4CCC5(CC4)CC(CN4CCN6c7cc(F)c(N8CCC(=O)NC8=O)cc7CC[C@@H]6C4)C5)cc3)C2(C)C)ccc1C#N` [Trifluoroacetate of compound 44], which DC50 is on record?
A: < 100 nM

Q: With `Cc1cc(O[C@H]2C(C)(C)[C@H](NC(=O)c3ccc(N4CCC(CN5CCN6c7cc(F)c(C8CCC(=O)NC8=O)cc7CC[C@H]6C5)CC4)cc3)C2(C)C)cc(C)c1C#N` (some centres unmarked) [Compound 78] as the compound, how does the DC50 read?
A: < 100 nM

Q: `COc1cc(O[C@H]2C(C)(C)[C@H](NC(=O)c3ccc(N4CCC(N5CCN6c7cc(F)c(C(=O)N[C@@H]8CCC(=O)NC8=O)cc7CC[C@H]6C5)CC4)cc3)C2(C)C)ccc1C#N` [Trifluoroacetate of compound 25] was tested. Which DC50 did it give?
A: < 100 nM

Q: With `CC1(C)[C@H](NC(=O)c2ccc(N3CCC4(CC3)CC(CN3CCN5c6cc(F)c(N7CCC(=O)NC7=O)cc6CC[C@@H]5C3)C4)cc2)C(C)(C)[C@H]1Oc1ccc(C#N)c(Cl)c1` [Compound 56] as the compound, how does the DC50 read?
A: < 100 nM
